Source: PubChem BioAssay (NCI)
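A five-concentration, 48-hour dose response in 96-well plates underlies each endpoint, interpolated linearly between surrounding concentrations. TGI is the concentration that stops growth completely.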

Columns and labels:
Experiment in all cases: NCI anticancer screen, dose series, 48 h
786-0 renal = system: 786-0 renal
A498 renal = system: A498 renal
A549 NSCLC = system: A549 NSCLC
ACHN renal = system: ACHN renal
BT-549 breast = system: BT-549 breast
CAKI-1 renal = system: CAKI-1 renal
CCRF-CEM leukemia = system: CCRF-CEM leukemia
COLO 205 colon = system: COLO 205 colon
DU-145 prostate = system: DU-145 prostate
HCC-2998 colon = system: HCC-2998 colon
HCT-116 colon = system: HCT-116 colon
HCT-15 colon = system: HCT-15 colon
HOP-62 NSCLC = system: HOP-62 NSCLC
HOP-92 NSCLC = system: HOP-92 NSCLC
HS 578T breast = system: HS 578T breast
HT29 colon = system: HT29 colon
IGROV1 ovarian = system: IGROV1 ovarian
K-562 leukemia = system: K-562 leukemia
KM12 colon = system: KM12 colon
M14 melanoma = system: M14 melanoma
MALME-3M melanoma = system: MALME-3M melanoma
MCF7 breast = system: MCF7 breast
MDA-MB-231 breast = system: MDA-MB-231 breast
MDA-MB-435 = system: MDA-MB-435
MDA-N = system: MDA-N
MOLT-4 leukemia = system: MOLT-4 leukemia
NCI-H226 lung = system: NCI-H226 lung
NCI-H23 lung = system: NCI-H23 lung
NCI-H460 lung = system: NCI-H460 lung
NCI-H522 lung = system: NCI-H522 lung
NCI/ADR-RES ovarian = system: NCI/ADR-RES ovarian
OVCAR-3 ovarian = system: OVCAR-3 ovarian
OVCAR-4 ovarian = system: OVCAR-4 ovarian
OVCAR-5 ovarian = system: OVCAR-5 ovarian
OVCAR-8 ovarian = system: OVCAR-8 ovarian
PC-3 prostate = system: PC-3 prostate
RPMI-8226 leukemia = system: RPMI-8226 leukemia
RXF 393 renal = system: RXF 393 renal
SF-268 CNS = system: SF-268 CNS
SF-295 CNS = system: SF-295 CNS
SF-539 CNS = system: SF-539 CNS
SK-MEL-2 melanoma = system: SK-MEL-2 melanoma
SK-MEL-28 melanoma = system: SK-MEL-28 melanoma
SK-MEL-5 melanoma = system: SK-MEL-5 melanoma
SK-OV-3 ovarian = system: SK-OV-3 ovarian
SN12C renal = system: SN12C renal
SNB-75 CNS = system: SNB-75 CNS
SR leukemia = system: SR leukemia
SW-620 colon = system: SW-620 colon
T-47D breast = system: T-47D breast
TK-10 renal = system: TK-10 renal
U251 CNS = system: U251 CNS
UACC-257 melanoma = system: UACC-257 melanoma
UACC-62 melanoma = system: UACC-62 melanoma
UO-31 renal = system: UO-31 renal
HL-60(TB) leukemia = system: HL-60(TB) leukemia
LOX IMVI melanoma = system: LOX IMVI melanoma

Work on `Oc1c(C2=NNC(c3ccc(Cl)cc3Cl)C2)ccc2ccccc12` (stereo unspecified) yielded a TGI (786-0 renal) greater than 100 µM, a TGI (A498 renal) greater than 100 µM and a TGI (A549 NSCLC) greater than 100 µM. It also gave a TGI (ACHN renal) greater than 100 µM, a TGI (BT-549 breast) greater than 100 µM and a TGI (CAKI-1 renal) greater than 100 µM. For the same compound, the TGI (CCRF-CEM leukemia) was 32.8 µM, the TGI (COLO 205 colon) was greater than 100 µM and the TGI (DU-145 prostate) was greater than 100 µM. The TGI (HCC-2998 colon) was greater than 100 µM, the TGI (HCT-116 colon) was greater than 100 µM and the TGI (HCT-15 colon) was greater than 100 µM. It also gave a TGI (HOP-62 NSCLC) greater than 100 µM, a TGI (HOP-92 NSCLC) greater than 100 µM and a TGI (HS 578T breast) greater than 100 µM. It also gave a TGI (HT29 colon) greater than 100 µM, a TGI (IGROV1 ovarian) greater than 100 µM and a TGI (K-562 leukemia) of 76.9 µM. For the same compound, the TGI (KM12 colon) was greater than 100 µM, the TGI (M14 melanoma) was greater than 100 µM and the TGI (MALME-3M melanoma) was greater than 100 µM. The TGI (MCF7 breast) was greater than 100 µM, the TGI (MDA-MB-231 breast) was greater than 100 µM and the TGI (MDA-MB-435) was greater than 100 µM. The TGI (MDA-N) was 55.5 µM, the TGI (MOLT-4 leukemia) was 31.4 µM and the TGI (NCI-H226 lung) was greater than 100 µM. For the same compound, the TGI (NCI-H23 lung) was greater than 100 µM, the TGI (NCI-H460 lung) was greater than 100 µM and the TGI (NCI-H522 lung) was greater than 100 µM. The TGI (NCI/ADR-RES ovarian) was 83.3 µM, the TGI (OVCAR-3 ovarian) was greater than 100 µM and the TGI (OVCAR-4 ovarian) was greater than 100 µM. The TGI (OVCAR-5 ovarian) was greater than 100 µM, the TGI (OVCAR-8 ovarian) was greater than 100 µM and the TGI (PC-3 prostate) was greater than 100 µM. The TGI (RPMI-8226 leukemia) was greater than 100 µM, the TGI (RXF 393 renal) was greater than 100 µM and the TGI (SF-268 CNS) was greater than 100 µM. For the same compound, the TGI (SF-295 CNS) was greater than 100 µM, the TGI (SF-539 CNS) was greater than 100 µM and the TGI (SK-MEL-2 melanoma) was greater than 100 µM. The TGI (SK-MEL-28 melanoma) was greater than 100 µM, the TGI (SK-MEL-5 melanoma) was greater than 100 µM and the TGI (SK-OV-3 ovarian) was greater than 100 µM. It also gave a TGI (SN12C renal) greater than 100 µM, a TGI (SNB-75 CNS) greater than 100 µM and a TGI (SR leukemia) of 35 µM. For the same compound, the TGI (SW-620 colon) was greater than 100 µM, the TGI (T-47D breast) was greater than 100 µM and the TGI (TK-10 renal) was greater than 100 µM. It also gave a TGI (U251 CNS) greater than 100 µM, a TGI (UACC-257 melanoma) greater than 100 µM and a TGI (UACC-62 melanoma) greater than 100 µM. For the same compound, the TGI (UO-31 renal) was greater than 100 µM.

Work on `Cc1c([N+](=O)[O-])ccc2c(NCCCN(C)C)ccnc12` yielded a TGI (786-0 renal) of 89.3 µM, a TGI (A498 renal) of 82.7 µM and a TGI (A549 NSCLC) of 40.5 µM. The TGI (ACHN renal) was greater than 100 µM, the TGI (BT-549 breast) was 36.2 µM and the TGI (CAKI-1 renal) was greater than 100 µM. It also gave a TGI (CCRF-CEM leukemia) greater than 100 µM, a TGI (COLO 205 colon) of 24.7 µM and a TGI (DU-145 prostate) greater than 100 µM. For the same compound, the TGI (HCT-116 colon) was 35.3 µM, the TGI (HCT-15 colon) was 32.7 µM and the TGI (HL-60(TB) leukemia) was greater than 100 µM. For the same compound, the TGI (HOP-62 NSCLC) was greater than 100 µM, the TGI (HOP-92 NSCLC) was 61.5 µM and the TGI (HS 578T breast) was 74.1 µM. It also gave a TGI (HT29 colon) of 34.1 µM, a TGI (IGROV1 ovarian) of 52.7 µM and a TGI (K-562 leukemia) greater than 100 µM. The TGI (KM12 colon) was 32.1 µM, the TGI (LOX IMVI melanoma) was 30.9 µM and the TGI (M14 melanoma) was 29.9 µM. It also gave a TGI (MALME-3M melanoma) of 31.7 µM, a TGI (MCF7 breast) of 37.2 µM and a TGI (MDA-MB-231 breast) of 56.6 µM. For the same compound, the TGI (MDA-MB-435) was 34.9 µM, the TGI (MDA-N) was 28.4 µM and the TGI (MOLT-4 leukemia) was greater than 100 µM. It also gave a TGI (NCI-H226 lung) of 72.5 µM, a TGI (NCI-H23 lung) of 34.6 µM and a TGI (NCI-H460 lung) of 33.2 µM. For the same compound, the TGI (NCI-H522 lung) was 31.9 µM, the TGI (NCI/ADR-RES ovarian) was greater than 100 µM and the TGI (OVCAR-3 ovarian) was 50.8 µM. The TGI (OVCAR-4 ovarian) was 41 µM, the TGI (OVCAR-5 ovarian) was 92.5 µM and the TGI (OVCAR-8 ovarian) was greater than 100 µM. It also gave a TGI (PC-3 prostate) of 41.6 µM, a TGI (RPMI-8226 leukemia) greater than 100 µM and a TGI (RXF 393 renal) of 60.8 µM. It also gave a TGI (SF-268 CNS) greater than 100 µM, a TGI (SF-295 CNS) of 60.4 µM and a TGI (SF-539 CNS) of 31.2 µM. It also gave a TGI (SK-MEL-2 melanoma) of 31.8 µM, a TGI (SK-MEL-28 melanoma) of 54.5 µM and a TGI (SK-MEL-5 melanoma) of 29.6 µM. For the same compound, the TGI (SK-OV-3 ovarian) was greater than 100 µM, the TGI (SN12C renal) was greater than 100 µM and the TGI (SNB-75 CNS) was greater than 100 µM. It also gave a TGI (SR leukemia) greater than 100 µM, a TGI (SW-620 colon) of 55.6 µM and a TGI (T-47D breast) of 76.5 µM. It also gave a TGI (TK-10 renal) of 80.6 µM, a TGI (U251 CNS) greater than 100 µM and a TGI (UACC-257 melanoma) of 31.4 µM. It also gave a TGI (UACC-62 melanoma) of 39.4 µM and a TGI (UO-31 renal) of 30.5 µM.
